According to patent US20100036088A1, “Selective poly-N-substituted glycine antibiotics” (priority 2008, published 2010):
Like-named read-outs stand apart in the source and are kept apart here. Square brackets hold non-standard residues; d marks the D form. Peptide text beside a SMILES is read from it. Nrpe = C[C@@H](NCC(=O)O)c1ccccc1; Nspe = C[C@H](NCC(=O)O)c1ccccc1; NPentylGly = CCCCCNCC(=O)O; Nphe = O=C(O)CNCc1ccccc1; Nlys = NCCCCNCC(=O)O

Key:
[1] = system: Candida albicans (SC5314); format: cell-based, C. albicans; conditions: SC5314
Description: Additionally, in order to characterize possible antifungal activity, a library of alkylated compounds was tested against C. albicans, a representative fungal strain.
Antifungal Assays. MICs were determined using the broth microdilution assay given by CLSI M27-A2 protocols. Candida albicans (SC5314) was grown on Sabouraud dextrose agar for 24 hours at 30° C. Cells were suspended in 0.145 M saline, and the cell concentration was adjusted to 3×10^6 cells/mL. After adjusting the cell concentration, the suspension was diluted 1:1000 with RPMI 1640 (with L-glutamine and without sodium bicarbonate, Invitrogen) buffered with 0.145 M 3-(N-morpholino) propanesulfonic acid (MOPS). Two-fold serial dilutions of peptoids, peptides, and amphotericin B (Calbiochem) were prepared in RPMI 1640 and mixed with an equal volume of the cell suspension in 96-well plates. The final testing concentrations for the peptoids and peptides were 0.20 to 100 μM, and concentrations for amphotericin B were 0.031 to 16 μM. Growth controls and sterility controls were also included. Plates were incubated for 48 hours at 35° C., and growth of C. albicans was inspected visually to determine the MICs. The MIC for each compound was defined as the lowest concentration with no visible fungal growth. Experiments were performed in duplicate on two separate days.

E. coli = format: cell-based
Description: (§1) Antibacterial assays. MICs were determined according to CLSI M7-A6 protocols in a 96-well microtiter plate. In test wells, 50 μL bacterial inoculum (5×10^5 CFU/ml) in Mueller-Hinton broth (MHB) was added to 50 μL peptoid solution in MHB (prepared by 1:2 serial dilutions). Positive controls contained 50 μL inoculum and 50 μL MHB without peptoid. […] MIC values reported were reproducible between three independent experimental replicates, each consisting of two parallel trials. Broad-spectrum antimicrobial susceptibility testing was performed against BSL2 pathogens by Nova Biologicals, Inc. (Conroe, Tex.).
(§2) Screening antibacterial assays. MICs were determined in 96-well microtiter plates in accordance with CLSI M7-A6 protocols. Peptoid solutions with 50 μL total volume were prepared using 2:1 serial dilutions. 50 μL of bacteria inoculum (1×10^6 CFU/mL) prepared in cation-adjusted Mueller-Hinton broth (CAMHB) was added to test wells. Control wells contained 100 μL MHB (no growth) or 50 μL inoculums with 50 μL MHB with no peptoid. […] Reported values were reproducible over three experiments, each containing two parallel trials.

B. subtilis = format: cell-based
Description: as §1, §2

human erythrocytes = assay: Hemolysis assay; format: cell-based
Description: Hemolysis assays. Erythrocytes were isolated from freshly drawn, heparanized human blood and resuspended to 20 vol % in PBS (pH 7.4). In a 96-well microtiter plate, 100 μL erythrocyte suspension was added to 100 μL peptoid solution in PBS (prepared by 1:2 serial dilutions), or 100 μL PBS in the case of negative controls. 100% hemolysis wells contained 100 μL blood cell suspension with 100 μL 0.2 vol % Triton X-100. The plate was incubated for 1 h at 37° C., then each well was diluted with 150 μL PBS. The plate was then centrifuged at 1200 g for 15 min, 100 μL of the supernatant from each well transferred to a fresh microtiter plate, and A350 measured.
Hemolysis assays. Erythrocytes were isolated from freshly drawn, heparanized human blood and resuspended in PBS (pH 7.4) to make a 20% volume suspension. Peptoid solutions were prepared by serial dilution (2:1) in a 96-well microtiter plate. For test wells, 100 μL of erythrocyte suspension was added to 100 μL of peptoid solution in PBS; PBS without peptoid was used as the negative control and 0.2 vol % Triton X-100 as the positive control that indicates 100% hemolysis. After 1 hour incubation at 37° C., each well was diluted with 150 μL PBS. Plates were then centrifuged at 1,200×g for 15 minutes to pellet the cells. 30 μL of the supernatant from each well were transferred to the corresponding well of a second 96-well plate that contains 70 μL PBS.

E. coli (ATCC 35218) = format: cell-based; conditions: ATCC 35218
Description: (§3) Whereas the preceding generation of molecules was designed to elucidate structure function relationships of specific molecular parameters (chirality, length, hydrophobicity, etc.), another generation compounds were designed explicitly to explore effects on selectivity. Antimicrobial activity of these compounds was tested against bacterial strains E. coli (ATTC 35218) and B. subtilis (ATTC 6633) in cation-adjusted MHB using the microdilution protocols previously described. The sequences, antimicrobial activities, hemolytic activities, and metabolic inhibitory concentrations against NIH 3T3 mouse fibroblast cells are summarized in Table 3 and the rationale of their design is described below.
(§4) The potencies of all compounds were determined against representative Gram-negative (E. coli ATCC 35218) and Gram-positive (B. subtilis ATCC 6633) biosafety level 1 (BSL1) organisms. In addition to hemolytic activity, the conventional measure of toxicity to mammalian cells, the effect of each ampetoid on NIH 3T3 mouse fibroblast cells was determined using the MTS tetrazolium salt-based calorimetric assay. While hemolysis measures the degree to which erythrocytes are lysed, the MTS assay indirectly quantifies the extent to which cellular metabolic activity is inhibited.
as §2

B. subtilis (ATCC 6633) = format: cell-based; conditions: ATCC 6633
Description: as §3, §4, §2

[2] = MTS assay, metabolic inhibition; format: cell-based, mouse
Description: as §4
MTS assays. NIH/3T3 cells (ATCC Corporation) cultured at 37° C. and 5% CO2 in complete Dulbecco's modified eagle's media (CDMEM) supplemented with 1% sodium pyruvate, 1% penicillin-streptomycin, 1.5 g/L NaHCO3, and 10% fetal bovine serum. Cells were seeded at a density of 5,000 cells per well for NIH/3T3 cells in 96-well plates (100 μl total volume). A peptoid solution plate (100 μL total volume per well) was prepared by serial dilution of aqueous peptoid stock solution in Hank's balanced salt solution (HBSS) media. The day-old cell monolayers were washed with HBSS and media was replaced with 100 μL HBSS. The contents of the peptoid solution plate were transferred onto corresponding wells of the cell monolayer plate, and 40 μL MTS reagent (Promega, Inc.) was added to each well. After incubating for 3 hours at 37° C., absorbance at 490 nm was determined. […] The average of six replicates is reported.

[3] = Table 6, NIH 3T3 mouse fibroblast cells

Which “C. albicans MIC” value [1] does the source give for `CCCCCNCC(=O)N(CCCCN)CC(=O)N(CC(=O)N(CC(=O)N(CCCCN)CC(=O)N(CC(=O)N(CC(=O)N(CCCCN)CC(=O)N(CC(=O)N(CC(=O)N(CCCCN)CC(=O)N(CC(=O)N(CC(N)=O)[C@@H](C)c1ccccc1)[C@@H](C)c1ccccc1)[C@@H](C)c1ccccc1)[C@@H](C)c1ccccc1)[C@@H](C)c1ccccc1)[C@@H](C)c1ccccc1)[C@@H](C)c1ccccc1)[C@@H](C)c1ccccc1` [C5-1] (H-[NPentylGly][Nlys][Nspe][Nspe][Nlys][Nspe][Nspe][Nlys][Nspe][Nspe][Nlys][Nspe][Nspe]-NH2) here?
Its value is 6.3 µM.

What about the “E. coli MIC” value (E. coli) of the same compound?
Its value is 6.3 µM.

What about the “B. subtilis MIC” value (B. subtilis) of the same compound?
The value was 1.6 µM.

What about the HD10 (human erythrocytes) of the same compound?
Its HD10 is 10 µM.

And the HD50 (human erythrocytes)?
Its HD50 is 40 µM.

Which “E. coli MIC” value (E. coli (ATCC 35218)) does the source give for `C[C@H](NCC(=O)N(CCCCN)CC(=O)N(CC(=O)N(CCCCN)CC(=O)N(CCCCN)CC(=O)N(CC(=O)N(CC(=O)N(CCCCN)CC(=O)N(CC(=O)N(CCCCN)CC(=O)N(CCCCN)CC(=O)N(CC(=O)N(CC(=O)N(CCCCN)CC(=O)N(CC(N)=O)[C@@H](C)c1ccccc1)[C@@H](C)c1ccccc1)[C@@H](C)c1ccccc1)[C@@H](C)c1ccccc1)[C@@H](C)c1ccccc1)[C@@H](C)c1ccccc1)[C@@H](C)c1ccccc1)c1ccccc1` [1B15mer-Nlys4,10, H-(Nspe-Nlys-Nspe-Nlys-Nlys-Nspe)2-Nspe-Nlys-Nspe-NH2] (H-[Nspe][Nlys][Nspe][Nlys][Nlys][Nspe][Nspe][Nlys][Nspe][Nlys][Nlys][Nspe][Nspe][Nlys][Nspe]-NH2) here?
Its value is 50 µM.

What about the “B. subtilis MIC” value (B. subtilis (ATCC 6633)) of the same compound?
Its value is 0.78 µM.

And the IC50 [2]?
Its IC50 is 16 µM.

What about the HD10 (human erythrocytes) of the same compound?
The HD10 was >200/>200 μM.

And the HD50 (human erythrocytes)?
The HD50 was >200/>200 μM.

What does the source list for `C[C@H](NCC(=O)N(CCCCN)CC(=O)N(CC(=O)N(CC(=O)N(CCCCN)CC(=O)N(CC(=O)N(CC(=O)N(CCCCN)CC(=O)N(CC(=O)N(CC(=O)N(CCCCN)CC(=O)N(CC(N)=O)[C@@H](C)c1ccccc1)[C@@H](C)c1ccccc1)[C@@H](C)c1ccccc1)[C@@H](C)c1ccccc1)[C@@H](C)c1ccccc1)[C@@H](C)c1ccccc1)[C@@H](C)c1ccccc1)c1ccccc1` [1B, H-(Nspe-Nlys-Nspe)4-NH2] (H-[Nspe][Nlys][Nspe][Nspe][Nlys][Nspe][Nspe][Nlys][Nspe][Nspe][Nlys][Nspe]-NH2)?
E. coli MIC (E. coli (ATCC 35218)): 6.3 µM; B. subtilis MIC (B. subtilis (ATCC 6633)): 1.6 µM; IC50 [2]: 4.9 µM; HD50 (human erythrocytes): > 100 µM

For `C[C@H](c1ccccc1)N(CC(=O)N(CC(N)=O)[C@@H](C)c1ccccc1)C(=O)CN(CCCCN)C(=O)CN(C(=O)CN(C(=O)CN(CCCCN)C(=O)CN(C(=O)CN(C(=O)CN(CCCCN)C(=O)CN(C(=O)CN(C(=O)CNCCCCN)[C@H](C)c1ccccc1)[C@@H](C)c1ccccc1)[C@H](C)c1ccccc1)[C@@H](C)c1ccccc1)[C@H](C)c1ccccc1)[C@@H](C)c1ccccc1` [1-Nrpe2,5,8,11, H-(Nlys-Nrpe-Nspe)4-NH2] (H-[Nlys][Nrpe][Nspe][Nlys][Nrpe][Nspe][Nlys][Nrpe][Nspe][Nlys][Nrpe][Nspe]-NH2), which “E. coli MIC” value (E. coli (ATCC 35218); Table 6) is on record?
The value was 6.3 µM.

What about the “B. subtilis MIC” value (B. subtilis (ATCC 6633); Table 6) of the same compound?
Its value is 1.6 µM.

And the IC50 [2, 3]?
The IC50 was 5.2 µM.

And the HD10 (human erythrocytes; Table 6)?
The HD10 was 22 µM.

What about the HD50 (human erythrocytes; Table 6) of the same compound?
Its HD50 is 95 µM.

Which “E. coli MIC” value (E. coli (ATCC 35218)) does the source give for `C[C@@H](c1ccccc1)N(CC(=O)N(CC(=O)N(CCCCN)CC(=O)N(CC(=O)N(CC(=O)N(CCCCN)CC(=O)N(CC(=O)N(CC(=O)N(CCCCN)CC(=O)N(CC(=O)N(CC(N)=O)Cc1ccccc1)Cc1ccccc1)Cc1ccccc1)Cc1ccccc1)Cc1ccccc1)Cc1ccccc1)Cc1ccccc1)C(=O)CNCCCCN` [1ach-Nspe2, H-(Nlys-Nspe-Npm)-(Nlys-Npm-Npm)3-NH2] (H-[Nlys][Nspe][Nphe][Nlys][Nphe][Nphe][Nlys][Nphe][Nphe][Nlys][Nphe][Nphe]-NH2) here?
The value was 6.3 µM.

What about the “B. subtilis MIC” value (B. subtilis (ATCC 6633)) of the same compound?
The value was 0.78 µM.

What about the IC50 [2] of the same compound?
The IC50 was 11 µM.

And the HD10 (human erythrocytes)?
The HD10 was 160 µM.

What about the HD50 (human erythrocytes) of the same compound?
Its HD50 is greater than 200 µM.

What does the source list for `C[C@@H](c1ccccc1)N(CC(N)=O)C(=O)CN(C(=O)CN(CCCCN)C(=O)CN(Cc1ccccc1)C(=O)CN(Cc1ccccc1)C(=O)CN(CCCCN)C(=O)CN(C(=O)CN(C(=O)CN(CCCCN)C(=O)CN(Cc1ccccc1)C(=O)CN(Cc1ccccc1)C(=O)CNCCCCN)[C@@H](C)c1ccccc1)[C@@H](C)c1ccccc1)[C@@H](C)c1ccccc1` [1-Npm2,3,8,9, H-(Nlys-Npm-Npm-Nlys-Nspe-Nspe)2-NH2]?
E. coli MIC (E. coli (ATCC 35218)): 6.3 µM; B. subtilis MIC (B. subtilis (ATCC 6633)): 1.6 µM; IC50 [2]: 15 µM; HD50 (human erythrocytes): > 200 µM

What does the source list for `C[C@@H](c1ccccc1)N(CC(=O)N(CCCCN)CC(=O)N(CC(=O)N(CC(=O)N(CCCCN)CC(=O)N(CC(=O)N(CC(=O)N(CCCCN)CC(N)=O)[C@@H](C)c1ccccc1)[C@@H](C)c1ccccc1)[C@@H](C)c1ccccc1)[C@@H](C)c1ccccc1)C(=O)CN(C(=O)CNCCCCN)[C@@H](C)c1ccccc1` [110mer, H-(Nlys-Nspe-Nspe)3-Nlys-NH2] (H-[Nlys][Nspe][Nspe][Nlys][Nspe][Nspe][Nlys][Nspe][Nspe][Nlys]-NH2)?
E. coli MIC (E. coli (ATCC 35218)): 12.5 µM; B. subtilis MIC (B. subtilis (ATCC 6633)): 0.78 µM; IC50 [2]: 54 µM; HD50 (human erythrocytes): >200/>200 μM

For `C[C@H](c1ccccc1)N(CC(=O)N(CCCCN)CC(=O)N(CC(=O)N(CC(=O)N(CCCCN)CC(=O)N(CC(=O)N(CC(=O)N(CCCCN)CC(=O)N(CC(=O)N(CC(N)=O)[C@@H](C)c1ccccc1)[C@@H](C)c1ccccc1)[C@@H](C)c1ccccc1)[C@@H](C)c1ccccc1)[C@H](C)c1ccccc1)[C@H](C)c1ccccc1)C(=O)CN(C(=O)CNCCCCN)[C@H](C)c1ccccc1` [1-Nrpe2,3,5,6, H-(Nlys-Nrpe-Nrpe)2-(Nlys-Nspe-Nspe)2-NH2] (H-[Nlys][Nrpe][Nrpe][Nlys][Nrpe][Nrpe][Nlys][Nspe][Nspe][Nlys][Nspe][Nspe]-NH2), which “E. coli MIC” value (E. coli (ATCC 35218); Table 6) is on record?
The value was 6.3 µM.

And the “B. subtilis MIC” value (B. subtilis (ATCC 6633); Table 6)?
The value was 0.78 µM.

What about the IC50 [2, 3] of the same compound?
The IC50 was 4.8 µM.

And the HD10 (human erythrocytes; Table 6)?
Its HD10 is 25 µM.

What about the HD50 (human erythrocytes; Table 6) of the same compound?
The HD50 was 96 µM.
